Measurements published in patent US11541029B2, “High penetration compositions and their applications” (Techfields Pharma Co., Ltd., priority 2008, dated 2023).

Assays:
[1] = Amount of salicylic acid in rat cerebrospinal fluid (CSF), 0.3 mmol/kg; format: in vivo, rats
Description: 27 male rats were divided into 4 groups […]. […] Amounts of salicylic acid in rat CSF were determined.

[2] = test system: autologous blood clots injected in femoral vein (pulmonary thrombus); experiment: Anti-thrombosis activity, autologous blood clots in rabbits; format: in vivo, Chinese White rabbits; details: 50 mg/kg topically to the back twice per day, 5 days
Description: Eighteen Chinese White rabbits weighing between 3.0 and 3.5 kg (aged 6-7 months) were selected and divided into three groups (control, P-1 and […] groups, n=6). One hour before the experiment, thrombi were made by aspirating venous blood (1 ml) into a sterilized bottle to clot. To avoid fragmentation and slow lysis, the autologous blood clots were stabilized in temperature-controlled (70° C.) distilled water for 10 min. After anesthesia, the femoral veins were exposed and distally isolated, and autologous blood clots (0.05 g/kg) were injected through an indwelling catheter (20GA), which had been placed in the femoral vein isolated earlier. 50 mg/kg of diethylaminoethyl acetylsalicylate.HCl salt (P-1, 10% in 25% ethanol) and diethylaminoethyl acetylsalicylsalicylate.HCl salt (P-59, 10% in 25% ethanol) were topically applied to the back of the rabbits twice per day. After 5 days, rabbits were euthanized with an excessive intravenous injection of sodium amobarbital (60 mg/kg). The lungs and hearts were isolated to observe whether thrombi were present in the pulmonary arteries. The lungs were immersed in 10% formalin for 24 h. Consecutive transverse sections along the obstructed pulmonary arteries were paraffin-embedded and stained with hematoxylin-eosine. […]

[3] = test system: Human colon cancer cells (LS174J); experiment: Human colon cancer xenograft in nude mice
Excerpt: Human colon cancer cells (LS174J, 2-3 mm^3 of tumor tissue was used in each mouse) were subcutaneously xenografted into nude mice (BALB).

[4] = test system: type 2 diabetes rat models [SLAC/GK(Goto and Kakisaki)]; experiment: Hypoglycemic effects of aspirin and its HPC in GK rats, once per day for 6 weeks; format: in vivo; details: for Blood Glucose Levels at day 1 / Blood Glucose Levels at day 42: no fasting, n = 5;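 for Blood Glucose Levels at day 42: blood glucose in mg/dL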
Description: The blood glucose levels were measured three times every week (no fasting) from the third week to the sixth week.

[5] = test system: GK rats (SLAC/GK, type 2 diabetes); experiment: Anti-diabetes (type II) activity of HPCs of NSAIAs in GK rats; format: in vivo; details: 30 mg/kg transdermally once per day, no fasting
In short: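 GK (type 2 diabetic) and normal SD rats, 14-16 weeks old, n=7, received 30 mg/kg test compound in 25% ethanol transdermally on a 6 cm^2 shaved back area once daily at 8 am for 6 weeks. Non-fasting blood glucose was measured at 4:30 pm every 3 days from week 3 to week 6.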

[6] = test system: Human breast cancer cells (BCAP-37); experiment: Human breast cancer xenograft in nude mice
In short: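 BCAP-37 tumour tissue (2-3 mm^3 per mouse) implanted subcutaneously in BALB nude mice, 12 groups of 7. Test salts given as 50 μl of 5% aqueous solution (2.5 mg compound per dose).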

[7] = Amount of salicylic acid in rat plasma and brain, 0.3 mmol/kg
Excerpt: 20 male rats were divided into 4 groups (n=5). 0.3 mmol/kg of diethylaminoethyl acetylsalicylate.HCl salt was administrated into rats intramuscularly (20% in 70% ethanol) or transdermally (10% in 70% ethanol, on the shaved back of rat, 10 cm^2) and 0.3 mmol/kg of aspirin was administrated into rats intramuscularly (20% in 70% ethanol) or transdermally (10% in 70% ethanol, on the shaved back of rat, 10 cm^2). […] The plasma or brain tissue (the whole brain was washed with pH 7.4 buffer for 3 times) was homogenized immediately in 3-5 ml of methanol, using a tissue tearor at 30,000 rpm (about 2 min.).

[8] = test system: MPTP-induced Parkinson's disease mice; experiment: Anti-Parkinson's disease activity in MPTP-induced mice; details: MPTP mice, 30 mg/kg, n = 10
Description: Group A mice were ip injected 0.4% sodium carboxymethylcellulos (15 ml/kg per day) for 7 days. Group B and C mice were ip injected N-methyl-4-phenyl-1,2,3,6-tetrahydropyridine (MPTP, 30 mg/kg per day) for 7 days. The mice were divided into 2 groups. […] All mice were killed after the last treatment and the brain tissues were quickly freezed at −80° C. […] The contents of malondialdehyde (MDA) in the SN were measured with the thiobarbituric acid-reaction to indicate the LPO, and contents of glutathione (GSH) in the substantia nigra (SN) were based on the dithionitrobenzonic acid (DTNB) determination. The contents of GABA and Glu in the striatum and SN were shown by high performance amino acid auto-analyser.

Structure (SMILES): CCN(CC)CCOC(=O)c1ccccc1OC(C)=O.Cl [P-1, diethylaminoethyl acetylsalicylate.HCl salt]
- salicylic acid in CSF ([1]; intramuscularly, 1 hour): 36.4 ± 4.3 nmol/g
- salicylic acid in CSF ([1]; intramuscularly, 8 hours): 28.2 ± 6.5 nmol/g
- salicylic acid in CSF ([1]; intramuscularly, 18 hours): 15.1 ± 4.7 nmol/g
- salicylic acid in CSF ([1]; transdermally, 1 hour): 38 ± 17 nmol/g
- salicylic acid in CSF ([1]; transdermally, 8 hours): 28.4 ± 7.5 nmol/g
- salicylic acid in CSF ([1]; transdermally, 18 hours): 22.3 ± 5.4 nmol/g
- lung tissue and vascular walls (histology) [2]: both lung tissue and vascular walls were normal
- tumor Size at day 30 ([3]; about 50 μl of 5% topically every 12 hours): 480 ± 130 mm^3
- Weight of mice at day 30 ([3]; in vivo): 23 ± 3
- Blood Glucose Levels at day 1 ([4]; 50 mg/kg, orally): 215.6 ± 19.5 mg/dL
- Blood Glucose Levels at day 42 ([4]; 50 mg/kg, orally): 172.4 ± 21.5 mg/dL
- Blood Glucose Levels at day 1 ([4]; 50 mg/kg, transdermally): 217.3 ± 19.7 mg/dL
- Blood Glucose Levels at day 42 ([4]; 50 mg/kg, transdermally): 135.4 ± 19.8 mg/dL
- Blood Glucose Levels at day 1 ([4]; 100 mg/kg, orally): 216.4 ± 18.5 mg/dL
- Blood Glucose Levels at day 42 ([4]; 100 mg/kg, orally): 133.4 ± 23.1 mg/dL
- Blood Glucose Levels at day 1 ([4]; 100 mg/kg, transdermally): 219.8 ± 20.4 mg/dL
- Blood Glucose Levels at day 42 ([4]; 100 mg/kg, transdermally): 115.4 ± 16.7 mg/dL
- Blood Glucose Levels at day 1 ([4]; 200 mg/kg, orally): 214.4 ± 26.5 mg/dL
- Blood Glucose Levels at day 42 ([4]; 200 mg/kg, orally): 125.4 ± 26.8 mg/dL
- Blood Glucose Levels at day 1 ([4]; 200 mg/kg, transdermally): 219.4 ± 23.5 mg/dL
- Blood Glucose Levels at day 42 ([4]; 200 mg/kg, transdermally): 111.4 ± 23.2 mg/dL
- Blood Glucose Levels at day 1 ([4]; 300 mg/kg, orally): 217.4 ± 25.5 mg/dL
- Blood Glucose Levels at day 42 ([4]; 300 mg/kg, orally): 115.4 ± 18.2 mg/dL
- anti-diabetic effect, times stronger than that of aspirin ([4]; oral administration): more than 5 times
- blood glucose, Average (Week 2-5) [5]: 6.4 ± 2.4 mmol/L
- blood glucose, Day 1 [5]: 17.1 ± 2.8 mmol/L
- tumor Size at day 42 ([6]; 50 μl of 5% topically every 8 hours): 140 ± 50 mm^3
- Weight of mice at day 42 ([6]; in vivo): 24 ± 3
- salicylic acid in Plasma (1 hr) ([7]; intramuscularly): 378 ± 34 nmol/mL
- salicylic acid in Plasma (8 hr) ([7]; intramuscularly): 123 ± 25 nmol/mL
- salicylic acid in Plasma (18 hr) ([7]; intramuscularly): 0.9 ± 0.2 nmol/mL
- salicylic acid in Plasma (1 hr) ([7]; transdermally): 158 ± 21 nmol/mL
- salicylic acid in Plasma (8 hr) ([7]; transdermally): 103 ± 28 nmol/mL
- salicylic acid in Plasma (18 hr) ([7]; transdermally): 1.1 ± 0.2 nmol/mL
- GABA in Striatum [8]: 4.9 ± 1.6 μmol/g wet tissue
- GABA in Substantia nigra [8]: 4.7 ± 0.5 μmol/g wet tissue
- GSH in the substantia nigra [8]: 143 ± 13 μg/g protein
- Glu in Striatum [8]: 26.5 ± 2.7
- Glu in Substantia nigra [8]: 29.5 ± 2.4
- MDA in the substantia nigra [8]: 14 ± 4 μmol/g protein
